Data from patent US11572590B2, “Methods for evaluating tumor cell spheroids using 3D microfluidic cell culture device” (Dana-Farber Cancer Institute, Inc., priority 2017, dated 2023).
Like-named read-outs stand apart in the source and are kept apart here.

Key:
off-target kinases [1] = target: T1, off-target kinases (Homo sapiens, UniProt Q08881); test: SelectScreen Kinase Profiling, single point inhibition and IC50 for off-target kinases; type: biochemical; conditions: ITK, ZLYTE, ATP Km app
T1 sequence (Q08881 1-620): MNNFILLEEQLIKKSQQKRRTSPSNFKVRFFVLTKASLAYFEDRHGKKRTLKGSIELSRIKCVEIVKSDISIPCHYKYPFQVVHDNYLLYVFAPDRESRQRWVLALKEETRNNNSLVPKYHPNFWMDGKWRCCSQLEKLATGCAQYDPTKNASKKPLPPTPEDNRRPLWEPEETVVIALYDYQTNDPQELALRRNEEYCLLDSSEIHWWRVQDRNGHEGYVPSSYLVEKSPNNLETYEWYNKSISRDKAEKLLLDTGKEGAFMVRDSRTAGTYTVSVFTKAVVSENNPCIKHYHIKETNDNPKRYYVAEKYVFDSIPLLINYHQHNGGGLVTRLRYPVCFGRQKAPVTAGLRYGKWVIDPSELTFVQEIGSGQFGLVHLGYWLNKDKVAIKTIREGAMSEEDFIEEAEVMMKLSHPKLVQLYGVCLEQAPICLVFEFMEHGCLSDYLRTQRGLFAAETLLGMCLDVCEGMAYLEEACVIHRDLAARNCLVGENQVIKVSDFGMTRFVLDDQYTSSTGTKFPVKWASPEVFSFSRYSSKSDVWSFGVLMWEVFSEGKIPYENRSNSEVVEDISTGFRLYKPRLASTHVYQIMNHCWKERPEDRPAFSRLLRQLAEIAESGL

off-target kinases [2] = target: T2, off-target kinases (Homo sapiens, UniProt Q8IWQ3); test: as above; type: biochemical; conditions: BRSK2, LanthaScreen Binding
T2 sequence (Q8IWQ3 1-736): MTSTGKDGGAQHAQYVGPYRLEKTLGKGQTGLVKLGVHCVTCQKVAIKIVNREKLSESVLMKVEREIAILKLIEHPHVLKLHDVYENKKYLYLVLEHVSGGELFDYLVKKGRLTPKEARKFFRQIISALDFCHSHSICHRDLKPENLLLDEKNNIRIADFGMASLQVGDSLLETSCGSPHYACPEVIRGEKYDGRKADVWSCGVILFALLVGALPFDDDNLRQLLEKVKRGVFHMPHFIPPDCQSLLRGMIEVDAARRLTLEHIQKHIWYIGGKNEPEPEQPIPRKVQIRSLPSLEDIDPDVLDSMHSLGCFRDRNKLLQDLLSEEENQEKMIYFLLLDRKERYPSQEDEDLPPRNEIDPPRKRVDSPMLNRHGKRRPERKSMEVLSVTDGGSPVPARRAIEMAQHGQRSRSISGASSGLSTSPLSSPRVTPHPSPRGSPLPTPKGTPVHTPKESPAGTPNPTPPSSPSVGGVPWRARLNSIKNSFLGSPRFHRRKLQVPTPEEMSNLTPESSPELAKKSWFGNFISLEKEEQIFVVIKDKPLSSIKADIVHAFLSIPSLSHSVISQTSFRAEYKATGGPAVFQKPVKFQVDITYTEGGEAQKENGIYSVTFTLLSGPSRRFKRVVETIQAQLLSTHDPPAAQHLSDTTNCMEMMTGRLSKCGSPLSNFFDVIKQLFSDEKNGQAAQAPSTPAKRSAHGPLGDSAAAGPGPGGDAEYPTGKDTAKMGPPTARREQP

Q: Which results are given for `N#Cc1cc(-c2ncnc(Nc3ccc(N4CCN(C5COC5)CC4)cc3)n2)ccc1OC1CCOCC1` [Compound 1, 5-(4-((4-(4-(oxetan-3-yl)piperazin-1-yl)phenyl)amino)-1,3,5-triazin-2-yl)-2-((tetrahydro-2H-pyran-4-yl)oxy)benzonitrile]?
A: inhibition (off-target kinases [1]; read-out: % Inhibition 1): 37%; inhibition (off-target kinases [1]; read-out: % Inhibition 2): 32%; inhibition (off-target kinases [1]; read-out: % Inhibition Avg): 34%; inhibition (off-target kinases [2]; read-out: % Inhibition 1): 16%; inhibition (off-target kinases [2]; read-out: % Inhibition 2): 17%; inhibition (off-target kinases [2]; read-out: % Inhibition Avg): 17%
